# Tests used:
# CD4+ T cell clone 3 = test: Recognition assay with peptides: IFN-γ production (ELISA) by CD4+ T cell clone 3 co-cultured with peptide-pulsed EBV-B cells; assay type: cell-based, human; settings: for IFN-γ production clone 3: 2 h with 5 μg/ml peptide, overnight co-culture
# Description: Recognition assays with peptides. Peptides were synthesized on solid phase using Fmoc for transient NH2-terminal protection and were characterized using mass spectrometry. All peptides were >90% pure, as indicated by analytical HPLC. Lyophilized peptides were dissolved at 5 mg/ml in 10 mM acetic acid and 10% DMSO, and stored at −20° C. EBV-B cells were distributed at 20,000 cells per round-bottomed microwell and incubated for 2 h at 37° C. in the presence of the different peptides, the indicated concentrations representing their concentrations during the incubation step. CD4^+ T lymphocytes (5,000) were added in 100 μl of complete IMDM (Gibco BRL) medium supplemented with IL-2 (25 U/ml). Supernatants were harvested after 20 h of co-culture and IFN-γ production was measured by ELISA. The peptides used in FIG. 6 correspond to the MAGE-1260-275, MAGE-2267-282, MAGE-3267-282, MAGE-4268-283, MAGE-6267-282, MAGE-10292-307, MAGE-11270-285, and MAGE-12267-282 protein sequences.
# We tested for recognition by each of the three clones autologous EBV-B cells pulsed with a set of peptides of 16 amino acids, overlapping by 12 residues and covering the complete MAGE-3 sequence. DDHK2 EBV-B cells were distributed in microwells (2×10^4 cells) and incubated for 2 h with the indicated concentrations of peptides. 5×10^3 cells from each autologous CD4^+ T cell clone were added and the presence of IFN-γ in the supernatant was measured by ELISA after overnight co-culture. The results shown in FIG. 6 represent the average of triplicate co-cultures.
# DR7 = test: HLA-DR peptide binding assay (competition), DR7; set-up: species or system human
# DR4 = molecular target: T1, DR4 (Homo sapiens, UniProt P01903+P01911, A100K/A169T/F76Y/I96L/K127E/L162R/M171V/N62H/P40V/Q125Y/R42H/S133A/S149N/S66Y/V115G/V209L/W38E); test: HLA-DR peptide binding assay (competition), DR4
# T1 construct: endogenous in cells
compound,measurement,setting,value
CC(C)C[C@H](NC(=O)[C@H](C)NC(=O)[C@H](CCCNC(=N)N)NC(=O)[C@@H]1CCCN1C(=O)CNC(=O)[C@H](Cc1c[nH]c2ccccc12)NC(=O)[C@H](CC(C)C)NC(=O)[C@H](Cc1ccccc1)NC(=O)[C@H](CCC(=O)O)NC(=O)[C@H](Cc1ccc(O)cc1)NC(=O)[C@H](CS)NC(=O)[C@H](C)N)C(=O)N[C@H](C(=O)N[C@@H](CCC(=O)O)C(=O)N[C@H](C(=O)N[C@@H](CO)C(=O)O)[C@@H](C)O)C(C)C,IFN-γ production clone 3,"CD4+ T cell clone 3; EBV-B cell line DDHK2 (DR1 DR15 DR51, DR1 positive)",">4,000 pg/ml"
same,IFN-γ production clone 3,"CD4+ T cell clone 3; EBV-B cell line LB650 (DR7 DR15 DR51 DR53, DR1 negative)",150 pg/mL
same,IFN-γ production clone 3,"CD4+ T cell clone 3; EBV-B cell line LB831 (DR1 DR7 DR53, DR1 positive)","1,371 pg/ml"
same,IFN-γ production clone 3,"CD4+ T cell clone 3; EBV-B cell line LB1158 (DR1 DR13 DR52, DR1 positive)","1,698 pg/ml"
same,IFN-γ production clone 3,"CD4+ T cell clone 3; EBV-B cell line LB1856 (DR15, DR1 negative)",164 pg/mL
same,IFN-γ production clone 3,"CD4+ T cell clone 3; EBV-B cell line LB1870 (DR15 DR53 DR7, DR1 negative)",119 pg/mL
same,IFN-γ production clone 3,"CD4+ T cell clone 3; EBV-B cell line LB2095 (DR13 DR15 DR51 DR52, DR1 negative)",125 pg/mL
same,IFN-γ production clone 3,"CD4+ T cell clone 3; EBV-B cell line LB2138 (DR1 DR13, DR1 positive)","2,053 pg/ml"
same,most efficiently recognized peptide for clone 3,"CD4+ T cell clone 3; FIG. 6, comparison with shorter peptides",most efficiently recognized peptide
same,production of IFN-γ by clone 3 stimulated by peptide-pulsed autologous EBV-B cells,"CD4+ T cell clone 3; FIG. 6, set of 16 amino acid peptides overlapping by 12 residues",stimulated the production of IFN-γ
same,"recognition by clone 3 of peptide-loaded autologous EBV-B cells in the presence of anti-HLA-DR, -DP or -DQ antibodies",CD4+ T cell clone 3; data not shown,"abolished by an anti-HLA-DR antibody, but not by antibodies against HLA-DP or HLA-DQ"
same,binding to purified HLA-DR molecules (in words),DR7; competition assay,bound
same,IC50,"DR7; competition with biotinylated YKL 10 nM, pH 5, ± standard deviation, read-out: IC50 (nM) of MAGE-3267-282",1200 nM
same,Ratios IC50 MAGE-3/IC50 reference,"DR7; ratio lower than 10 = high affinity, higher than 10 = intermediate binder",120
same,Ratios IC50 MAGE-3/IC50 reference,DR4,18
same,binding to purified HLA-DR molecules (in words),"DR4; DR4, competition assay",bound

# — patent US7388072B2, “MAGE peptides presented by HLA class II molecules” (priority 2001, dated 2008)
